Test results from patent publication US7671074B2, “Sulfonylguanidine compounds and pharmaceutical uses thereof” (Gruenenthal GmbH, priority 2000, dated 2010).

molecular target: gabapentin binding site; assay: Binding assay: displacement of gabapentin from its binding site; conditions: displacement of gabapentin from its binding site
Experimental: Gabapentin was used in a binding assay in order to check the binding and affinities of the selected compounds. The affinity of the compounds according to the invention was measured via the displacement of gabapentin from its binding site.

IC50	Structure (SMILES)
1820 nM	CCCc1ccc(S(=O)(=O)/N=C(/N)NCc2cccs2)cc1 [Example 58, N-{amino[(thiophen-2-yl-methyl)-amino]-methylene}-4-propylbenzenesulfonamide]
136 nM	Cc1c(S(=O)(=O)/N=C(\N)NCc2ccccn2)sc2ccc(Cl)cc12 [Example 48, 5-chloro-3-methylbenzo[b]thiophene-2-sulfonic acid amino-[(pyridin-2-yl-methyl)-amino]-methylene amide]
27 nM	CCCc1ccc(S(=O)(=O)/N=C(\N)NCc2ccccn2)cc1 [Example 42, N-{amino[(pyridin-2-yl-methyl)-amino]-methylene}-4-propylbenzenesulfonamide]
634 nM	COc1ccc(S(=O)(=O)/N=C(\N)NCc2ccccn2)cc1 [Example 43, N-{amino[(pyridin-2-yl-methyl)-amino]-methylene}-4-methoxybenzenesulfonamide]
33 nM	CC(C)c1ccc(S(=O)(=O)/N=C(\N)NCc2ccccn2)cc1 [Example 34, N-{amino[(pyridin-2-yl-methyl)-amino]-methylene}-4-isopropylbenzenesulfonamide]
3200 nM	CCCc1ccc(S(=O)(=O)/N=C(/N)NCc2ccco2)cc1 [Example 55, N-{amino[(furan-2-yl-methyl)-amino]-methylene}-4-propylbenzenesulfonamide]
1100 nM	N/C(=N\S(=O)(=O)c1ccc(Cl)c(Cl)c1)NCc1ccccn1 [Example 33, N-{amino[(pyridin-2-yl-methyl)-amino]-methylene}-3,4-dichlorobenzenesulfonamide]
5300 nM	N/C(=N\S(=O)(=O)c1cccc2ccccc12)NCc1ccccn1 [Example 44, Naphthalene-1-sulfonic acid amino-[(pyridin-2-yl-methyl)-amino]-methylene amide]
3510 nM	CC(C)c1ccc(S(=O)(=O)/N=C(/N)NCc2ccco2)cc1 [Example 54, N-{amino[(furan-2-yl-methyl)-amino]-methylene}-4-isopropylbenzenesulfonamide]
122 nM	N/C(=N\S(=O)(=O)c1ccc2ccccc2c1)NCc1ccccn1 [Example 37, Naphthalene-2-sulfonic acid amino-[(pyridin-2-yl-methyl)-amino]-methylene amide]
2800 nM	N/C(=N\S(=O)(=O)c1cccc2cccnc12)NCc1ccccn1 [Example 47, Quinoline-8-sulfonic acid amino-[(pyridin-2-yl-methyl)-amino]-methylene amide]
170 nM	CCCCc1ccc(S(=O)(=O)/N=C(\N)NCc2ccccn2)cc1 [Example 50, N-{amino[(pyridin-2-yl-methyl)-amino]-methylene}-4-butylbenzenesulfonamide]
5690 nM	CC(C)(C)c1ccc(S(=O)(=O)/N=C(/N)NCc2cccs2)cc1 [Example 60, N-{amino[(thiophen-2-yl-methyl)-amino]-methylene}-4-tert.-butylbenzenesulfonamide]
218 nM	N/C(=N\S(=O)(=O)c1ccc(Br)cc1)NCc1ccccn1 [Example 32, N-{amino[(pyridin-2-yl-methyl)-amino]-methylene}-4-bromobenzenesulfonamide]
90 nM	CC(C)(C)c1ccc(S(=O)(=O)/N=C(/N)NCc2ccccn2)cc1 [Example 49, N-{amino[(pyridin-2-yl-methyl)-amino]-methylene}-4-tert.-butylbenzenesulfonamide]
970 nM	CC(C)c1ccc(S(=O)(=O)/N=C(/N)NCc2cccs2)cc1 [Example 59, N-{amino[(thiophen-2-yl-methyl)-amino]-methylene}-4-isopropylbenzenesulfonamide]
50 nM	N/C(=N\S(=O)(=O)c1ccc(I)cc1)NCc1ccccn1 [Example 35, N-{amino[(pyridin-2-yl-methyl)-amino]-methylene}-4-iodobenzenesulfonamide]
438 nM	Cc1cc(C)c(S(=O)(=O)/N=C(\N)NCc2ccccn2)c(C)c1 [Example 41, N-{amino[(pyridin-2-yl-methyl)-amino]-methylene}-2,4,6-trimethylbenzenesulfonamide]

same assay, conditions: inhibition/displacement of gabapentin; concentration 10^−5 μM [sic]

Percent inhibition	Structure (SMILES)
41%	CCCCc1ccc(S(=O)(=O)/N=C(/N)NCc2cccs2)cc1.Cl [Example 57, N-{amino[(thiophen-2-yl-methyl)-amino]-methylene}-4-butylbenzenesulfonamide]
21%	Cl.N/C(=N\S(=O)(=O)c1ccc(F)cc1)NCc1ccccn1 [Example 40, N-{amino[(pyridin-2-yl-methyl)-amino]-methylene}-4-fluorobenzenesulfonamide]
35%	Cc1cccc(S(=O)(=O)/N=C(\N)NCc2ccccn2)c1 [Example 45, N-{amino[(pyridin-2-yl-methyl)-amino]-methylene}-3-methylbenzenesulfonamide]
36%	N/C(=N\S(=O)(=O)c1cccs1)NCc1ccccn1 [Example 46, Thiophene-2-sulfonic acid amino-[(pyridin-2-yl-methyl)-amino]-methylene amide]
27%	CC(=O)Nc1ccc(S(=O)(=O)/N=C(\N)NCc2ccccn2)cc1.Cl [Example 39, N-[4-({amino-[(pyridin-2-yl-methyl)-amino]-methylene}-sulfamoyl)-phenyl]-acetamide]
69.7%	Cc1ccc(S(=O)(=O)/N=C(\N)NCc2ccccc2)cc1 [Example 2, N-[amino-(benzylaminomethylene)]-4-methylbenzene-sulfonamide]
49%	CC(C)(C)c1ccc(S(=O)(=O)/N=C(/N)NCc2ccco2)cc1.Cl [Example 56, N-{amino[(furan-2-yl-methyl)-amino]-methylene}-4-tert.-butylbenzenesulfonamide]
26%	Cc1ccc(S(=O)(=O)/N=C(/N)NCc2ccco2)cc1.Cl [Example 53, N-{amino[(furan-2-yl-methyl)-amino]-methylene}-4-methylbenzenesulfonamide]
47%	CCCCc1ccc(S(=O)(=O)/N=C(/N)NCc2ccco2)cc1.Cl [Example 52, N-{amino[(furan-2-yl-methyl)-amino]-methylene}-4-butylbenzenesulfonamide]
29%	Cc1ccc(S(=O)(=O)/N=C(/N)NCc2cccs2)cc1.Cl [Example 62, N-{amino[(thiophen-2-yl-methyl)-amino]-methylene}-4-methylbenzenesulfonamide]
24%	Cl.N/C(=N/S(=O)(=O)c1ccc(Cl)cc1)NCc1cccs1 [Example 61, N-{amino[(thiophen-2-yl-methyl)-amino]-methylene}-4-chlorobenzenesulfonamide]
17%	Cl.N/C(=N\S(=O)(=O)c1ccccc1)NCc1ccccn1 [Example 36, N-{amino[(pyridin-2-yl-methyl)-amino]-methylene}-benzenesulfonamide]
5%	CC(C)(C)c1ccc(S(=O)(=O)/N=C(/N)NCc2ncccn2)cc1.Cl [Example 51]
23.5%	Cl.N/C(=N/S(=O)(=O)c1ccc(Cl)cc1)NCc1ccco1 [Example 63, N-{amino[(furan-2-yl-methyl)-amino]-methylene}-4-chlorobenzenesulfonamide]
